Values of other authors, collected in article PMC4763008, “Selective Inhibition of Bakuchicin Isolated from Psoralea corylifolia on CYP1A in Human Liver Microsomes” (Evidence-based Complementary and Alternative Medicine : eCAM, 2016).

Columns and labels:
CYP1A [1] = molecular target: T1, CYP1A (Homo sapiens, UniProt P05177); settings: human liver microsomes ref 17; cited from earlier work
T1 sequence (P05177 2-516): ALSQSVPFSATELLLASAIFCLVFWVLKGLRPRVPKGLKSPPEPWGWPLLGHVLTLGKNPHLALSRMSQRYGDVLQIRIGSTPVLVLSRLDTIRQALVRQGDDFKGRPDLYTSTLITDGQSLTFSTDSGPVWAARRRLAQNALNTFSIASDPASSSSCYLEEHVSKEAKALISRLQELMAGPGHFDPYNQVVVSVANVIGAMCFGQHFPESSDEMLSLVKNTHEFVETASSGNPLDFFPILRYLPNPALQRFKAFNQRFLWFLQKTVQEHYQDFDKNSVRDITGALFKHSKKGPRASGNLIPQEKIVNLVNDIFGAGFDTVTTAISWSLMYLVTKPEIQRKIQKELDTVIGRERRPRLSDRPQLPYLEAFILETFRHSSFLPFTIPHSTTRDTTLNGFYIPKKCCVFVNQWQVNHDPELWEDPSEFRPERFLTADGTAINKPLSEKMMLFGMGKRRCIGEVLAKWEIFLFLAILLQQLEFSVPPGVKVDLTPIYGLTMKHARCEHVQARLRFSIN

CYP1A [2] = settings: rat liver microsomes ref 17; cited from earlier work

Compound | type of inhibitor (CYP1A [1]) | type of inhibitor (CYP1A [2])
O=c1ccc2ccc3occc3c2o1 [isopsoralen] | reversible and time-dependent inhibitor | reversible and time-dependent inhibitor
O=c1ccc2cc3ccoc3cc2o1 [psoralen] | reversible and time-dependent inhibitor | reversible and time-dependent inhibitor
